In patent US7928102B2, “Irradiated compositions and treatment of cancers with radiation in combination with taurolidine and/or taurultam” (Ed. Geistlich Soehne AG fuer Chemische Industrie, priority 2006, dated 2011):
Read-outs that look alike come from different tables or passages of the source.

Key:
[1] = Gamma irradiation of aqueous 1% taurolidine solution, radiolysis products; type: physicochemical; details: approx. 25 gKy, aqueous 1% solution in 500 ml glass bottles; for content after γ-irradiation of a 1% taurolidine solution: IR, HPLC/MS, amino acid analysis
Method: Examination of an aqueous 1% taurolidine solution for radiolysis products. After γ-irradiation (approx. 25 gKy) of a 1% taurolidine solution contained in 500 ml glass bottles the following products can be isolated, or quantitatively determined by means of IR spectroscopy, HPLC/MS analysis, amino acid analysis: […]

[2] = Evaluation of crystalline taurolidine powder after sterilisation by gamma-radiation; type: physicochemical
Method: Two batches of normal crystalline taurolidine powder were produced and sterilised by gamma-radiation. The taurolidine crystals 0.5 g were weighed into 5 ml vials under sterile conditions and laminar flow. The vials were closed by rubber stoppers and seal caps. The closed vials were then radiated with gamma rays of 25 kGy (Range certification 26-30 kGy) and subsequently analysed.

B16 4A5 cells = assay: Melanoma tumour growth in vivo, B16 4A5 cells injected into right flank; set-up: species or system C57BL/6 mice
Method: C57BL/6 mice (8-10 week old) (n=120) were injected with B16 4A5 cells (5×10^5 per mouse) into the right flank and divided into control, PVP (solvent for taurolidine), taurolidine (5 mg/mouse, i.p), radiation (5 Gy/mouse), and taurolidine plus radiation. Tumour growth rate, tumour/body weight ratio, lung metastases, and survival rate were recorded. Intra-tumour cell mitosis/apoptosis index, microvessel desity, and splenic cytotoxic T-lymphocyte (CTL) and nature killer (NK) cell-mediated cytotoxic activity were also accessed.

[3] = system: Murine melanoma B16 4A5 cells; assay: Cell apoptosis and necrosis by FACScan analysis, MTT assay, DNA gel electrophoresis; type: cell-based
Method: (§1) Murine melanoma B16 4A5 and B16 F10 cells were treated with taurolidine (0-200 μg/ml), X-ray (Roentgen) radiation (0-4 Gy), or their combination for different time points. Cell cycle was assessed by FACScan analysis. Cell apoptosis and necrosis were determined by FACScan analysis and MTT assay, and further confirmed by DNA gel electrophoresis.

[4] = system: Murine melanoma B16 F10 cells; assay: as above; type: cell-based; details: taurolidine 10-200 μg/ml
Method: as §1

[5] = system: Murine melanoma B16 4A5 cells; assay: Cell cycle by FACScan analysis; type: cell-based
Method: as §1

[6] = system: Murine melanoma B16 F10 cells; assay: Cell cycle by FACScan analysis; type: cell-based
Method: as §1

[7] = system: C2C12 Muscle Myoblast Cells; assay: Acute toxicity: cell adhesion evaluated microscopically; details: for Adhesion of C2C12 Muscle Myoblast Cells: then 20 h, % of control cultures
Method: (§2) In the present report, the acute toxicity of dehydrotaurultam was evaluated compared to taurultam. For this, two different categories of cells (muscle cells and fibroblasts) were incubated with three different concentrations of the two test substances for different periods of time. A possible toxic effect of the test substances on the cells was analyzed 20 hours later. The measures to determine possible cell damage were viability and level of cell adhesion.
(§3) The COS-7 and C2C12 cell lines were plated at 50% confluence on 48 well dishes, and incubated for 24 hours at 37°. Then the media were changed. To this, either unmodified medium (control), or medium containing 0.1%, 0.25% or 0.5% taurultam or dehydrotaurultam was used. The cell cultures were incubated at 37° for 5, 10, 20, 60 and 120 minutes, and then washed three times with fresh medium. After a further 20 hours in the incubator at 37°, the cells were evaluated.
(§4) As a measure of viability, the extent of cell adhesion was evaluated microscopically.
(§5) Cell adhesion was analyzed after 20 hours of incubation with taurultam and dehydrotaurultam respectively.
(§6) Muscle cells were incubated with taurultam or dehydrotaurultam (0.1%, 0.25%, 0.5%) for 5, 10, 20, 60 and 120 minutes at 37°. After rinsing them three times with a regular medium, the cultures were incubated for another 20 h. Then the extent of cells adhesion was examined microscopically.

COS-7 Fibroblasts [8] = assay: as above; details: for Adhesion of COS-7 Fibroblasts: then 20 h, % of control cultures
Method: (§7) For this, two different categories of cells (muscle cells and fibroblasts) were incubated with three different concentrations of the two test substances for different periods of time. A possible toxic effect of the test substances on the cells was analyzed 20 hours later. The measures to determine possible cell damage were viability and level of cell adhesion.
as §3, §4, §5
(§8) Fibroblasts were incubated with taurultam or dehydrotaurultam (0.1%, 0.25%, 0.5%) for 5, 10, 20, 60 and 120 minutes at 37°. After rinsing them three times with a regular medium, the cultures were incubated for another 20 h. Then the extent of adhesion of the cells was examined microscopically.

[9] = system: C2C12 Muscle Myoblast Cells; details: mouse
Method: as §2, §3, §4, §5, §6

COS-7 Fibroblasts [10] = system: COS-7 Fibroblasts
Method: as §7, §3, §4, §5, §8

[11] = taurolidine 5 mg/mouse i.p. plus radiation 5 Gy/mouse
[12] = taurolidine 5 mg/mouse i.p. plus radiation 5 Gy/mouse vs taurolidine alone (p<0.01) or radiation alone (p<0.01)
[13] = taurolidine alone, 0-200 μg/ml, different time points
[14] = taurolidine in combination with X-ray radiation (0-4 Gy)

## O=C=O [CO2]
[1]
  amount after γ-irradiation of a 1% taurolidine solution: 9.7 mg
  content after γ-irradiation of a 1% taurolidine solution: 0.0019%

## NCCS(N)(=O)=O [taurinamide]
[1]
  amount after γ-irradiation of a 1% taurolidine solution: 85.5 mg
  content after γ-irradiation of a 1% taurolidine solution: 0.0171%

## O=S1(=O)CCN(CN2CCS(=O)(=O)NC2)CN1 [taurolidine]
[2]
  Solubility: 1%
  evaluation of stability after sterilization by gamma radiation: identical with non-radiated crystals
[2]; crystalline powder after gamma rays of 25 kGy
  Endotoxins: negative
[1]
  amount after γ-irradiation of a 1% taurolidine solution: 3,900 mg
  content after γ-irradiation of a 1% taurolidine solution: 0.78%
B16 4A5 cells; [11]
  nature killer (NK) cell cytotoxic activity: enhanced
  splenic cytotoxic T-lymphocyte (CTL) cytotoxic activity: enhanced
  survival: improved survival
B16 4A5 cells; [12]
  lung metastatic nodules: greater reduction
  tumour growth rate: greater reduction
  tumour/body weight ratio: greater reduction
B16 4A5 cells; taurolidine 5 mg/mouse i.p. plus radiation 5 Gy/mouse, compared to untreated animals (p<0.001)
  primary and metastatic melanoma tumour growth: significantly attenuated
B16 4A5 cells; taurolidine plus radiation group
  intra-tumour cell mitosis/apoptosis index: significant decreased
[3]; 25 μg/ml taurolidine alone
  apoptosis: failed to induce apoptosis
[3]; 25 μg/ml taurolidine in combination with 0.5 Gy radiation
  apoptosis: 70%
[3]; taurolidine 10-200 μg/ml
  cell apoptosis: dose- and time-dependent cell apoptosis
[4]
  cell apoptosis: dose- and time-dependent cell apoptosis
[5]; [13]
  cell cycle: cell cycle at G0/G1 phase with an enhanced sub-G1 population in a dose- and time-dependent manner
[5]; [14]
  cell cycle: cell cycle arrest at G2/M phase with absence of sub-G1 population
[6]; [13]
  cell cycle: cell cycle at G0/G1 phase with an enhanced sub-G1 population in a dose- and time-dependent manner
[6]; [14]
  cell cycle: cell cycle arrest at G2/M phase with absence of sub-G1 population

## O=S1(=O)CCNCN1 [taurultam]
[7]; 0.1%, incubation 5 min
  Adhesion of C2C12 Muscle Myoblast Cells: 100%
[7]; 0.1%, incubation 5 min, listed as Taurultam
  Adhesion of C2C12 Muscle Myoblast Cells: 100%
[7]; 0.1%, incubation 10 min
  Adhesion of C2C12 Muscle Myoblast Cells: 100%
[7]; 0.1%, incubation 10 min, listed as Taurultam
  Adhesion of C2C12 Muscle Myoblast Cells: 100%
[7]; 0.1%, incubation 20 min
  Adhesion of C2C12 Muscle Myoblast Cells: 100%
[7]; 0.1%, incubation 20 min, listed as Taurultam
  Adhesion of C2C12 Muscle Myoblast Cells: 100%
[7]; 0.1%, incubation 60 min
  Adhesion of C2C12 Muscle Myoblast Cells: 90%
[7]; 0.1%, incubation 120 min
  Adhesion of C2C12 Muscle Myoblast Cells: 60%
[7]; 0.1%, incubation 120 min, listed as Taurultam
  Adhesion of C2C12 Muscle Myoblast Cells: 60%
[7]; 0.25%, incubation 5 min
  Adhesion of C2C12 Muscle Myoblast Cells: 100%
[7]; 0.25%, incubation 10 min
  Adhesion of C2C12 Muscle Myoblast Cells: 95%
[7]; 0.25%, incubation 20 min
  Adhesion of C2C12 Muscle Myoblast Cells: 90%
[7]; 0.25%, incubation 60 min
  Adhesion of C2C12 Muscle Myoblast Cells: 70%
[7]; 0.25%, incubation 120 min
  Adhesion of C2C12 Muscle Myoblast Cells: 60%
[7]; 0.25%, incubation periods of 60 and 120 minutes
  cell adhesion, muscle cells: 60-70%
[7]; 0.5%, incubation 5 min
  Adhesion of C2C12 Muscle Myoblast Cells: 95%
[7]; 0.5%, incubation 10 min
  Adhesion of C2C12 Muscle Myoblast Cells: 90%
[7]; 0.5%, incubation 20 min
  Adhesion of C2C12 Muscle Myoblast Cells: 90%
[7]; 0.5%, incubation 60 min
  Adhesion of C2C12 Muscle Myoblast Cells: 60%
[7]; 0.5%, incubation 120 min
  Adhesion of C2C12 Muscle Myoblast Cells: 50%
[7]; 0.5%, incubation periods of 60-120 minutes
  cell adhesion, muscle cells: 50-60%
[7]; all concentrations (0.1-0.5%), 2-hour incubation period
  cell adhesion, muscle cells: 50-60%
COS-7 Fibroblasts [8]; 0.1%, incubation 5 min
  Adhesion of COS-7 Fibroblasts: 100%
COS-7 Fibroblasts [8]; 0.1%, incubation 10 min
  Adhesion of COS-7 Fibroblasts: 100%
COS-7 Fibroblasts [8]; 0.1%, incubation 20 min
  Adhesion of COS-7 Fibroblasts: 90%
COS-7 Fibroblasts [8]; 0.1%, incubation 60 min
  Adhesion of COS-7 Fibroblasts: 80%
COS-7 Fibroblasts [8]; 0.1%, incubation 120 min
  Adhesion of COS-7 Fibroblasts: 70%
COS-7 Fibroblasts [8]; 0.1%, more extended incubation periods (60 and 120 minutes)
  cell adhesion, fibroblasts: limited adhesion was observed
COS-7 Fibroblasts [8]; 0.25%, incubation 5 min
  Adhesion of COS-7 Fibroblasts: 95%
COS-7 Fibroblasts [8]; 0.25%, incubation 10 min
  Adhesion of COS-7 Fibroblasts: 90%
COS-7 Fibroblasts [8]; 0.25%, incubation 20 min
  Adhesion of COS-7 Fibroblasts: 60%
COS-7 Fibroblasts [8]; 0.25%, incubation 60 min
  Adhesion of COS-7 Fibroblasts: 60%
COS-7 Fibroblasts [8]; 0.25%, incubation 120 min
  Adhesion of COS-7 Fibroblasts: 70%
COS-7 Fibroblasts [8]; 0.25%, incubation period of at least 20 minutes
  cell adhesion, fibroblasts: 60%
COS-7 Fibroblasts [8]; 0.5%, incubation 5 min
  Adhesion of COS-7 Fibroblasts: 95%
COS-7 Fibroblasts [8]; 0.5%, incubation 10 min
  Adhesion of COS-7 Fibroblasts: 90%
COS-7 Fibroblasts [8]; 0.5%, incubation 20 min
  Adhesion of COS-7 Fibroblasts: 70%
COS-7 Fibroblasts [8]; 0.5%, incubation 60 min
  Adhesion of COS-7 Fibroblasts: 60%
COS-7 Fibroblasts [8]; 0.5%, incubation 120 min
  Adhesion of COS-7 Fibroblasts: 40%
COS-7 Fibroblasts [8]; 0.5%, more extended incubation periods (beyond 10 minutes)
  cell adhesion, fibroblasts: ≥ 40%
COS-7 Fibroblasts [8]; most extreme conditions (0.5%, 1-2 h)
  cell adhesion, fibroblasts: 40-60%

## OCO [methylene glycol]
[1]
  amount after γ-irradiation of a 1% taurolidine solution: 81 mg
  content after γ-irradiation of a 1% taurolidine solution: 0.0160%

## NCCS(=O)(=O)O [taurine]
[1]
  amount after γ-irradiation of a 1% taurolidine solution: 53 mg
  content after γ-irradiation of a 1% taurolidine solution: 0.0106%

## O=S1(=O)CCN=CN1 [dehydrotaurultam]
[1]
  amount after γ-irradiation of a 1% taurolidine solution: 780 mg
  content after γ-irradiation of a 1% taurolidine solution: 0.156%
[9]; 0.25 %
  cell adhesion, muscle cells: 80%
[9]; 0.5 %
  cell adhesion, muscle cells: 80-90%
[9]; 5 min, 0.1 %
  Adhesion of C2C12 Muscle Myoblast Cells: 100%
[9]; 5 min, 0.25 %
  Adhesion of C2C12 Muscle Myoblast Cells: 100%
[9]; 5 min, 0.5 %
  Adhesion of C2C12 Muscle Myoblast Cells: 100%
[9]; 10 min, 0.1 %
  Adhesion of C2C12 Muscle Myoblast Cells: 100%
[9]; 10 min, 0.25 %
  Adhesion of C2C12 Muscle Myoblast Cells: 100%
[9]; 10 min, 0.5 %
  Adhesion of C2C12 Muscle Myoblast Cells: 100%
[9]; 20 min, 0.1 %
  Adhesion of C2C12 Muscle Myoblast Cells: 100%
[9]; 20 min, 0.25 %
  Adhesion of C2C12 Muscle Myoblast Cells: 90%
[9]; 20 min, 0.5 %
  Adhesion of C2C12 Muscle Myoblast Cells: 90%
[9]; 60 min, 0.1 %
  Adhesion of C2C12 Muscle Myoblast Cells: 100%
[9]; 60 min, 0.25 %
  Adhesion of C2C12 Muscle Myoblast Cells: 80%
[9]; 60 min, 0.5 %
  Adhesion of C2C12 Muscle Myoblast Cells: 90%
[9]; 2 h
  cell adhesion, muscle cells: 80-90%
[9]; 120 min, 0.1 %
  Adhesion of C2C12 Muscle Myoblast Cells: 90%
[9]; 120 min, 0.25 %
  Adhesion of C2C12 Muscle Myoblast Cells: 80%
[9]; 120 min, 0.5 %
  Adhesion of C2C12 Muscle Myoblast Cells: 80%
COS-7 Fibroblasts [10]
  cell adhesion, fibroblasts: not detected
COS-7 Fibroblasts [10]; African green monkey, 0.25 %
  cell adhesion, fibroblasts: 80%
COS-7 Fibroblasts [10]; African green monkey, 5 min, 0.1 %
  Adhesion of COS-7 Fibroblasts: 100%
COS-7 Fibroblasts [10]; African green monkey, 5 min, 0.25 %
  Adhesion of COS-7 Fibroblasts: 100%
COS-7 Fibroblasts [10]; African green monkey, 5 min, 0.5 %
  Adhesion of COS-7 Fibroblasts: 100%
COS-7 Fibroblasts [10]; African green monkey, 10 min, 0.1 %
  Adhesion of COS-7 Fibroblasts: 100%
COS-7 Fibroblasts [10]; African green monkey, 10 min, 0.25 %
  Adhesion of COS-7 Fibroblasts: 100%
COS-7 Fibroblasts [10]; African green monkey, 10 min, 0.5 %
  Adhesion of COS-7 Fibroblasts: 95%
COS-7 Fibroblasts [10]; African green monkey, 20 min, 0.1 %
  Adhesion of COS-7 Fibroblasts: 100%
COS-7 Fibroblasts [10]; African green monkey, 20 min, 0.25 %
  Adhesion of COS-7 Fibroblasts: 90%
COS-7 Fibroblasts [10]; African green monkey, 20 min, 0.5 %
  Adhesion of COS-7 Fibroblasts: 90%
COS-7 Fibroblasts [10]; African green monkey, 60 min, 0.1 %
  Adhesion of COS-7 Fibroblasts: 100%
COS-7 Fibroblasts [10]; African green monkey, 60 min, 0.25 %
  Adhesion of COS-7 Fibroblasts: 90%
COS-7 Fibroblasts [10]; African green monkey, 60 min, 0.5 %
  Adhesion of COS-7 Fibroblasts: 80%
COS-7 Fibroblasts [10]; African green monkey, 120 min, 0.1 %
  Adhesion of COS-7 Fibroblasts: 90%
COS-7 Fibroblasts [10]; African green monkey, 120 min, 0.25 %
  Adhesion of COS-7 Fibroblasts: 80%
COS-7 Fibroblasts [10]; African green monkey, 120 min, 0.5 %
  Adhesion of COS-7 Fibroblasts: 80%
